In US7811797B2, “α-isomaltosylglucosaccharide-forming enzyme, process and uses of the same” (Kabushiki Kaisha Hayashibara Seibutsu Kagaku Kenkyujo, priority 2000, dated 2010):
Where two headings read alike, the source gives them in different places.

How the values were obtained:
[1] = system: α-isomaltosylglucosaccharide-forming enzyme; experiment: Influence of metal ions on the activity of α-isomaltosylglucosaccharide-forming enzyme (Strain A19); type: biochemical, Arthrobacter globiformis A19; settings: for Relative activity (%): 1 mM of each metal-ion; for influence on the enzyme activity, in words: 1 mM
[2] = system: α-isomaltosyl-transferring enzyme; type: biochemical, Bacillus globisporus C11
Description: (§1) The α-isomaltosyl-transferring enzyme was assayed for enzymatic activity by dissolving panose in 100 mM acetate buffer (pH 6.0) to give a concentration of 2% (w/v) for a substrate solution, adding a 0.5 ml of an enzyme solution to 0.5 ml of the substrate solution, enzymatically reacting the mixture solution at 35° C. for 30 min, suspending the reaction mixture by boiling for 10 min, and quantifying glucose, among the cyclotetrasaccharide and glucose formed in the reaction mixture, by the glucose oxidase method. One unit activity of the α-isomaltosyl-transferring enzyme is defined as the enzyme amount that forms one micromole of glucose per minute under the above enzymatic reaction conditions. Throughout the specification, the enzymatic activity of the α-isomaltosyl-transferring enzyme means the unit(s) assayed as above.
(§2) The influence of metal ions on the activity of α-isomaltosyl-transferring enzyme was examined in the presence of 1 mM of each metal-ion according to the assay for the enzyme activity.

[3] = system: α-isomaltosyl-transferring enzyme; experiment: Influence of metal ions on the activity of α-isomaltosyl-transferring enzyme (Strain N75); type: biochemical, Bacillus globisporus N75; settings: for Relative activity (%): 1 mM of each metal-ion; for influence on the enzyme activity, in words: 1 mM
Description: as §1, §2

[4] = system: α-isomaltosylglucosaccharide-forming enzyme; experiment: Influence of metal ions on the activity of α-isomaltosylglucosaccharide-forming enzyme (Strain C9); type: biochemical, Bacillus globisporus C9; settings: for Relative activity (%): 1 mM of each metal-ion
Description: (§3) One unit activity of the α-isomaltosylglucosaccharide-forming enzyme is defined as the enzyme amount that forms one micromole of maltose per minute under the above enzymatic reaction conditions. Throughout the specification, the enzymatic activity of the α-isomaltosylglucosaccharide-forming enzyme means the unit(s) assayed as above.
(§4) The influence of metal ions on the activity of α-isomaltosylglucosaccharide-forming enzyme was examined in the presence of 1 mM of each metal-ion according to the assay for the enzyme activity.

[5] = system: α-isomaltosyl-transferring enzyme; experiment: Influence of metal ions on the activity of α-isomaltosyl-transferring enzyme (Strain C9); type: biochemical, Bacillus globisporus C9; settings: for Relative activity (%): 1 mM of each metal-ion; for influence on the enzyme activity, in words: 1 mM
Description: as §1, with “above. […]” for “above.”

[6] = system: α-isomaltosyl-transferring enzyme; experiment: Influence of metal ions on the activity of α-isomaltosyl-transferring enzyme (Strain S1); type: biochemical, Arthrobacter ramosus S1; settings: for Relative activity (%): 1 mM of each metal-ion
Description: as §1, §2

[7] = system: α-isomaltosylglucosaccharide-forming enzyme; experiment: Influence of metal ions on the activity of α-isomaltosylglucosaccharide-forming enzyme (Strain C11); type: biochemical, Bacillus globisporus C11; settings: for Relative activity (%): 1 mM of each metal-ion; for influence on the enzyme activity, in words: 1 mM
Description: as §3
The influence of metal ions on the activity of α-isomaltosylglucosaccharide forming enzyme was examined in the presence of 1 mM of each metal-ion according to the assay for the enzyme activity.

[8] = system: α-isomaltosylglucosaccharide-forming enzyme; experiment: Influence of metal ions on the activity of α-isomaltosylglucosaccharide-forming enzyme (Strain N75); type: biochemical, Bacillus globisporus N75; settings: for Relative activity (%): 1 mM of each metal-ion; for influence on the enzyme activity, in words: 1 mM
Description: as §3, §4

| SMILES | Relative activity (%) [1] [%] | Relative activity (%) ([2]; 1 mM of each metal-ion) | Relative activity (%) [3] [%] | Relative activity (%) [4] [%] | Relative activity (%) [5] [%] | Relative activity (%) [6] [%] | Relative activity (%) [7] [%] | Relative activity (%) [8] [%] | influence on the enzyme activity, in words [1] | Relative activity (%) [2] [%] | influence on the enzyme activity, in words [2] | influence on the enzyme activity, in words [3] | influence on the enzyme activity, in words [5] | influence on the enzyme activity, in words [7] | influence on the enzyme activity, in words [8] | influence on the enzyme activity, in words ([2]; 1 mM) | influence on the enzyme activity, in words ([4]; 1 mM) | influence on the enzyme activity, in words ([6]; 1 mM) |
| --- | --- | --- | --- | --- | --- | --- | --- | --- | --- | --- | --- | --- | --- | --- | --- | --- | --- | --- |
| [Zn+2] [Zn^2+] | 56 | 83 | 75 | 92 | 88 | 78 | 91 | 82 |  |  |  |  |  |  |  |  |  |  |
| [Co+2] [Co^2+] | 93 | 89 | 92 | 100 | 103 | 91 | 96 | 93 |  |  |  |  |  |  |  |  |  |  |
| O=C(O)CN(CCN(CC(=O)O)CC(=O)O)CC(=O)O [EDTA, ethylenediaminetetraacetic acid, reference compound] | 2 |  | 92 | 20 | 104 | 91 | 24 | 35 | greatly inhibited | 98 | not inhibited | not inhibited | not inhibited | greatly inhibited | greatly inhibited |  |  |  |
| [Hg+2] [Hg^2+] | 0 | 2 | 0.5 | 4 | 1 | 0.1 | 4 | 1 | greatly inhibited |  |  | greatly inhibited | greatly inhibited | greatly inhibited | greatly inhibited | greatly inhibited | greatly inhibited | greatly inhibited |
| [Sr+2] [Sr^2+] | 102 | 93 | 91 | 80 | 101 | 101 | 83 | 85 |  |  |  |  |  | also inhibited |  |  |  |  |
